“Also recorded” adds a separate entry of the source. Where no end group is shown, it is not given here.
Tests used:
CFTR [1] = assay: Surface biotinylation of CFTR in cGKII knockdown C2BBe cells; type: cell-based, human; conditions: dibutyryl cAMP 1 mmol/L, 30 min, vs PBS
[2] = tested on: rat proximal colonic mucosa; assay: Transepithelial short circuit current (Isc) across rat proximal colonic mucosa, Ussing chamber; design: species or system rat (Sprague–Dawley)
Caco‐2 cell line = conditions: human colonic Caco‐2 cell line; ref Castro et al. 2013; Silos‐Santiago et al. 2013; cited from earlier work
From the text: (§1) While the increase in intracellular cGMP following ligand activation of GC‐C is well established, the efflux of cGMP from enterocytes is not well studied.

rat colonic mucosa = conditions: apical and basolateral membrane, ref Silos‐Santiago et al. 2013, Tchernychev et al. 2015; cited from earlier work
From the text: as §1

mouse colonic mucosa = conditions: apical and basolateral membrane, ref Silos‐Santiago et al. 2013, Tchernychev et al. 2015; cited from earlier work
From the text: as §1

T84 cells = conditions: ref Forte et al. 1993; cited from earlier work
human colonic mucosa = assay: Transepithelial short circuit current (Isc) across human ascending colonic mucosa, Ussing chamber; conditions: human ascending colon, bumetanide 100 μmol/L basolateral, linaclotide 30 nmol/L and 1000 nmol/L; mean ± SEM (n = 6)
CFTR [3] = assay: Surface biotinylation of CFTR in T84 cells; type: cell-based, human; conditions: linaclotide 3.27 μmol/L 30 min
CFTR [4] = assay: Surface biotinylation of CFTR in C2BBe cells; type: cell-based, human; conditions: linaclotide 3.27 μmol/L 30 min
[5] = tested on: rat proximal colonic mucosa; design: method as in 2 sources, one per row (each row's own in cited_ref): ref Tchernychev et al. 2015 ||| ref Vaandrager et al. 1997; conditions: rat proximal colon; ref Vaandrager et al. 1997; cited from earlier work
[6] = tested on: PKGII-deficient mice intestinal tissue; design: method as in Vaandrager et al. 2000; conditions: normal and PKGII knockout mice; ref Vaandrager et al. 2000; cited from earlier work
human intestine = tested on: human intestine; design: method as in Kuhn et al. 1994; conditions: segments of human intestine including ascending colon; ref Kuhn et al. 1994; cited from earlier work
cGKII = cGKII knockdown in C2BBe cells, Western blot; type: cell-based, human; conditions: lentiviral cGKII shRNA
[7] = H7 50 μmol/L pretreatment 30 min
[8] = H8 70 μmol/L pretreatment 30 min

With CCCC(=O)Nc1ncnc2c1ncn2[C@@H]1O[C@@H]2COP(=O)(O)O[C@H]2[C@H]1OC(=O)CCC [Dibutyryl cAMP] the “surface CFTR in cGKII‐KD cells after cAMP analog” value (CFTR [1]) was “increased apical surface CFTR” and the “surface CFTR in cGKII‐KD cells after cAMP analog” value (CFTR [1]; listed as dibuturyl cAMP) was “able to recruit CFTR to the membrane”.
With O=C(CNc1ccc2ccccc2c1)N/N=C/c1cc(Br)c(O)c(Br)c1O [GlyH‐101] the “inhibition of linaclotide‐evoked Isc by CFTR inhibitor” value ([2]; GlyH‐101 0.1 mmol/L apical, 20 min after linaclotide 6 nmol/L or 100 nmol/L, mean ± SEM (n = 4)) was “significantly attenuated the linaclotide‐evoked Isc”, the “inhibition of linaclotide‐evoked Isc by CFTR inhibitor, low linaclotide” value ([2]; GlyH‐101 0.1 mmol/L, linaclotide 6 nmol/L) was “more profound when tissues were stimulated with lower concentrations of linaclotide; also recorded: significantly inhibited Isc induced by low concentration of linaclotide” and the “inhibition of linaclotide‐evoked Isc by CFTR inhibitor, high linaclotide” value ([2]; GlyH‐101 0.1 mmol/L, linaclotide 100 nmol/L) was “less profound”.
For “uroguanylin (NDDCELCVNVACTGCL; ends and bridges not checked; cysteine pairing not given here; UniProt Q16661 97-112, looked up) [natural hormone, GC‐C agonist]”, the cGMP efflux (Caco‐2 cell line) is given as “induce cGMP efflux”, the cGMP efflux (rat colonic mucosa) is given as “induce cGMP efflux” and the cGMP efflux (mouse colonic mucosa) is given as “induce cGMP efflux”. For the same compound, the “cGMP production via GC‐C activation” value (T84 cells) was “increase production of cGMP”.
For CCCCNc1cc(C(=O)O)cc(S(N)(=O)=O)c1Oc1ccccc1 [bumetanide], the “effect of NKCC1 inhibitor on linaclotide‐evoked Isc” value (human colonic mucosa) was “significantly attenuated linaclotide‐evoked Isc; also recorded: inhibits GC‐C mediated short circuit current across human colonic mucosa”.
With CC1CNCCN1S(=O)(=O)c1cccc2cnccc12 (centres unmarked) [H7] the “effect of PKA inhibitor on linaclotide‐induced apical CFTR traffic” value (CFTR [3]; [7]) was “reduced but did not abrogate linaclotide‐induced apical CFTR traffic; also recorded: reduce linaclotide‐induced apical trafficking of CFTR; also recorded: partially abrogated linaclotide‐stimulated traffic” and the “effect of PKA inhibitor on linaclotide‐induced apical CFTR traffic” value (CFTR [4]; [7]) was “reduced but did not abrogate linaclotide‐induced apical CFTR traffic; also recorded: reduce linaclotide‐induced apical trafficking of CFTR; also recorded: partially abrogated linaclotide‐stimulated traffic”.
In the case of CNCCNS(=O)(=O)c1cccc2cnccc12.Cl.Cl [H8], the “effect of PKGII inhibitor on NKH477‐evoked Isc” value ([2]; rat proximal colon, H8 100 μmol/L 30 min preincubation, NKH477 20 μmol/L basolateral, mean ± SEM (n = 5)) is reported as “no effect on NKH477‐evoked Isc; also recorded: no effect on PKA‐mediated short circuit current induced by NKH477”, the “effect of PKGII inhibitor on linaclotide‐induced Isc” value ([2]; rat proximal colon, H8 100 μmol/L 30 min preincubation, linaclotide 100 nmol/L apical, mean ± SEM (n = 5)) is reported as “significantly decreased linaclotide‐induced Isc compared to vehicle‐treated tissues; also recorded: significant, it was not complete” and the “effect of PKG inhibitor on linaclotide‐induced apical CFTR traffic” value (CFTR [3]; [8]) is reported as “reduced linaclotide‐induced apical CFTR traffic more potently compared to the PKA inhibitor H7; also recorded: reduce linaclotide‐induced apical trafficking of CFTR”. For the same compound, the “effect of PKG inhibitor on linaclotide‐induced apical CFTR traffic” value (CFTR [4]; [8]) was “reduced linaclotide‐induced apical CFTR traffic more potently compared to the PKA inhibitor H7; also recorded: reduce linaclotide‐induced apical trafficking of CFTR” and the “inhibition of GC‐C‐mediated transepithelial ion current by PKGII antagonists” value [5] was “significant but incomplete inhibition”.
In the case of Nc1cc(-c2ccncc2)c[nH]c1=O [amrinone], the “transepithelial ion current by PDE3 inhibitor” value [6] is given as “induced transepithelial ion current in tissues from normal and PKGII knockout mice”.
With C=C[C@@]1(C)CC(=O)[C@]2(O)[C@@]3(C)[C@@H](O)CCC(C)(C)[C@@H]3[C@H](OC(=O)CCN(C)C)[C@H](OC(C)=O)[C@@]2(C)O1.Cl [NKH477] the “NKH477-induced transepithelial ion current” value ([2]; rat proximal colon, NKH477 20 μmol/L basolateral, mean ± SEM (n = 5)) was “robust transepithelial ion current”.
In the case of “guanylin (PGTCEICAYAACTGC; ends and bridges not checked; cysteine pairing not given here; UniProt Q02747 101-115, looked up) [natural hormone, GC‐C agonist]”, the “electrogenic Cl− secretion” value (human intestine) is listed as “increase electrogenic Cl^− secretion” and the “cGMP production via GC‐C activation” value (T84 cells) is listed as “increase production of cGMP”.
In the case of Nc1nc2c(nc(Sc3ccc(Cl)cc3)n2[C@@H]2O[C@@H]3CO[P@@](=O)(S)O[C@H]3[C@H]2O)c(=O)[nH]1 [Rp‐8‐pCPT‐cGMPS], the “inhibition of GC‐C‐mediated transepithelial ion current by PKGII antagonists” value [5] is listed as “significant but incomplete inhibition”.
With “cGKII shRNA: cGKII‐targeting shRNA (5′‐GGGCCTTAATAACCATTTAGT‐3′), lentiviral pLKO.1 (expressed from pLKO.1 lentiviral vector)” the “downregulation of cGKII” value (cGKII) was “approximately 50 ± 3%”.

From PMC5471438, “Linaclotide activates guanylate cyclase‐C/cGMP/protein kinase‐II‐dependent trafficking of CFTR in the intestine” (Physiological Reports, 2017)
